According to patent US9359367B2, “Tetrahydroquinazolinone derivatives as PARP inhibitors” (Lupin Limited, priority 2012, dated 2016):

These molecules were tested against T1, PARP1 (Homo sapiens, UniProt P09874) (assay: PARP1 Biochemical Assay (BPS Bioscience kit, chemiluminescence)). Conditions: histone-coated plate, biotinilated NAD+, 25° C. for 60 min, luminescence, read-out: PARP 1 inhibition IC50.
T1 construct: purchased BPS Bioscience
Protocol: The assay was performed using BPS Bioscience kit. The 96-well strip plate was coated with 50 μl of histone mixture and incubated at 4° C. overnight. Next day the wells were blocked by adding 100 μl of blocking buffer. The plate was washed and 25 μl of appropriate concentration of PARP1 (25-75 ng/well) was added in all the Test and Positive control wells. In Negative control wells enzyme was replaced with 25 μl of water. To it 5 μl each of 10×PARP assay buffer and activated DNA was added in all the wells (Test, Positive and Negative control wells). 10× concentration of test compounds were prepared and 5 μl test compounds were added respective wells. Reaction volume was made up to 45 μl by adding water to all the wells. Finally, 5 μl of 10×PARP assay mixture containing biotinilated NAD^+ was added in each well and the plate was incubated at ambient temperature (25° C.) for 60 min. After washing the plate 50 μl of Streptavidin-HRP was added in each well and incubated the plate at RT for 30 min. The plate was washed and the luminescence was read in PHERAStar plate reader after adding 100 μl of chemiluminescent substrate.
PARP inhibition was calculated using the following formula: % PARP inhibition=100−[(RLU test compound treated sample−RLU negative control)/(RLU Positive control−RLU negative control)×100]
IC50 values were calculated by plotting % inhibition against the respective concentrations of test compounds using GraphPad Prism 5.

T1 sequence (P09874 whole entry): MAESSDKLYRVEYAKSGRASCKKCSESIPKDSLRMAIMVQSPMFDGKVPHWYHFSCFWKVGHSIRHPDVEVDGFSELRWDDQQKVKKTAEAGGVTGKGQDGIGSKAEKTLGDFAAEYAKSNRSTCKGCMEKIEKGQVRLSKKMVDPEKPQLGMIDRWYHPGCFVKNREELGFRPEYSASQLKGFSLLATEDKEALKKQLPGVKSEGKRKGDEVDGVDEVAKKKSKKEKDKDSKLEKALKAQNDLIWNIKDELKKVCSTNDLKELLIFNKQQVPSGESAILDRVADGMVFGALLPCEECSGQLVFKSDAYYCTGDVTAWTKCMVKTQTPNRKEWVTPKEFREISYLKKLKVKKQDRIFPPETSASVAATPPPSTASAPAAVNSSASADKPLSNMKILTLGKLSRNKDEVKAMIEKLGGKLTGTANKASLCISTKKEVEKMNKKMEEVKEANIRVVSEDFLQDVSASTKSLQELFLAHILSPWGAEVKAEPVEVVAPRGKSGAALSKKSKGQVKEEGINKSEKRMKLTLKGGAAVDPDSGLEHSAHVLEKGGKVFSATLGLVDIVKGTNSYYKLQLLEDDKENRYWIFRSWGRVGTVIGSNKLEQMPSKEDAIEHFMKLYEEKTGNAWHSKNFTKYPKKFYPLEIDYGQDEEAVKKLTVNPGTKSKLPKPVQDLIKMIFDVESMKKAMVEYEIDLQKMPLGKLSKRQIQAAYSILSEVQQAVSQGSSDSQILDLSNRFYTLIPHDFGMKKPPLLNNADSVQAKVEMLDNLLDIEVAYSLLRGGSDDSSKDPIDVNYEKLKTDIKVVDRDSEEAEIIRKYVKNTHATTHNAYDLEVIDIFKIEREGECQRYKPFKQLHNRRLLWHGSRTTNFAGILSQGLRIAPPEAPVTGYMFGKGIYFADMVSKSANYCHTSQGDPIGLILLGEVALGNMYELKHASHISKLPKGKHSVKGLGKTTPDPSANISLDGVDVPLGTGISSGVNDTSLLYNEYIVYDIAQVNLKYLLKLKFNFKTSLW

Row | SMILES | IC50 [nM]
1 | O=c1[nH]c(CCCN2C3CCC2CN(c2ccc(F)cc2)C3)nc2c1CC1(CC2)CC1 [Compound 7, 2′-(3-(3-(4-fluorophenyl)-3,8-diazabicyclo[3.2.1]octan-8-yl)propyl)-7′,8′-dihydro-3′H-spiro[cyclopropane-1,6′-quinazolin]-4′(5′H)-one] | 1 to 500
2 | O=c1[nH]c(CCCN2CCN(c3ccc(F)cc3)CC2)nc2c1CC1(CC2)CC1 [Compound 5, 2′-(3-(4-(4-fluorophenyl)piperazin-1-yl)propyl)-7′,8′-dihydro-3′H-spiro[cyclopropane-1,6′-quinazolin]-4′(5′H)-one] | 1 to 500
3 | O=c1[nH]c(C2=C[C@H](N3CCN(c4cccc(F)c4Cl)CC3)CC2)nc2c1CC1(CC2)CC1 [Compound 93, (R)-2′-(3-(4-(2-chloro-3-fluorophenyl)piperazin-1-yl)cyclopent-1-en-1-yl)-7′,8′-dihydro-3′H-spiro[cyclopropane-1,6′-quinazolin]-4′(5′H)-one] | 1 to 500
4 | O=c1[nH]c(CCCN2CC=C(c3ccccc3)CC2)nc2c1CCC1(CC1)C2 [Compound 17, 2′-(3-(4-phenyl-5,6-dihydropyridin-1(2H)-yl)propyl)-5′,6′-dihydro-3′H-spiro[cyclopropane-1,7′-quinazolin]-4′(8′H)-one] | 5000 to 500000
5 | O=c1[nH]c(CCCN2CCN(c3ccc(Cl)cc3)CC2)nc2c1CC1(CC2)CC1 [Compound 6, 2′-(3-(4-(4-chlorophenyl)piperazin-1-yl)propyl)-7′,8′-dihydro-3′H-spiro[cyclopropane-1,6′-quinazolin]-4′(5′H)-one] | 1 to 500
6 | CC(CCc1nc2c(c(=O)[nH]1)CC1(CC2)CC1)N1CCN(c2ccc(F)cc2)CC1 (stereo not drawn) [Compound 21, 2′-(3-(4-(4-fluorophenyl)piperazin-1-yl)butyl)-7′,8′-dihydro-3′H-spiro[cyclopropane-1,6′-quinazolin]-4′(5′H)-one] | 1 to 500
7 | O=c1[nH]c(C2=C[C@@H](N3CC=C(c4ccc(Cl)cc4)CC3)CC2)nc2c1CC1(CC2)CC1 [Compound 47, (S)-2′-(3-(4-(4-chlorophenyl)-5,6-dihydropyridin-1(2H)-yl)cyclopent-1-en-1-yl)-7′,8′-dihydro-3′H-spiro[cyclopropane-1,6′-quinazolin]-4′(5′H)-one] | 1 to 500
8 | O=c1[nH]c(CCCN2CCN(c3ccc(F)cc3)CC2)nc2c1C1CCC2C1 (stereo not drawn) [Compound 35, 2-(3-(4-(4-fluorophenyl)piperazin-1-yl)propyl)-5,6,7,8-tetrahydro-5,8-methanoquinazolin-4(3H)-one] | 5000 to 500000
9 | O=c1[nH]c(C2=C[C@H](N3CCN(c4ccc(F)c(Cl)c4)CC3)CC2)nc2c1CC1(CC2)CC1 [Compound 64, (R)-2′-(3-(4-(3-chloro-4-fluorophenyl)piperazin-1-yl)cyclopent-1-en-1-yl)-7′,8′-dihydro-3′H-spiro[cyclopropane-1,6′-quinazolin]-4′(5′H)-one] | 501 to 5000
10 | O=c1[nH]c(C2=C[C@H](N3CCN(c4ccc(F)cc4)CC3)CC2)nc2c1CCCC21CC1 [Compound 48, (R)-2′-(3-(4-(4-fluorophenyl)piperazin-1-yl)cyclopent-1-en-1-yl)-6′,7′-dihydro-3′H-spiro[cyclopropane-1,8′-quinazolin]-4′(5′H)-one] | 1 to 500
11 | CNC(=O)c1ccc(C2=CCN([C@H]3C=C(c4nc5c(c(=O)[nH]4)CC4(CC5)CC4)CC3)CC2)cc1 [Compound 72, (R)—N-methyl-4-(1-(3-(4′-oxo-4′,5′,7′,8′-tetrahydro-3′H-spiro[cyclopropane-1,6′-quinazolin]-2′-yl)cyclopent-2-en-1-yl)-1,2,3,6-tetrahydropyridin-4-yl)benzamide] | 1 to 500
12 | Cc1ccc(N2CCN([C@H]3C=C(c4nc5c(c(=O)[nH]4)CC4(CC5)CC4)CC3)CC2)c(F)c1 [Compound 88, (R)-2′-(3-(4-(2-fluoro-4-methylphenyl)piperazin-1-yl)cyclopent-1-en-1-yl)-7′,8′-dihydro-3′H-spiro[cyclopropane-1,6′-quinazolin]-4′(5′H)-one] | 1 to 500
13 | O=c1[nH]c(C2=C[C@H](N3CCN(c4ccc(F)cc4F)CC3)CC2)nc2c1CC1(CC2)CC1 [Compound 61, (R)-2′-(3-(4-(2,4-difluorophenyl)piperazin-1-yl)cyclopent-1-en-1-yl)-7′,8′-dihydro-3′H-spiro[cyclopropane-1,6′-quinazolin]-4′(5′H)-one] | 1 to 500
14 | Cc1cccc(N2CCN([C@H]3C=C(c4nc5c(c(=O)[nH]4)CC4(CC5)CC4)CC3)CC2)c1 [Compound 85, (R)-2′-(3-(4-(m-tolyl)piperazin-1-yl)cyclopent-1-en-1-yl)-7′,8′-dihydro-3′H-spiro[cyclopropane-1,6′-quinazolin]-4′(5′H)-one] | 1 to 500

The next lines start with the values.

Row | IC50 [nM] | SMILES
15 | 1 to 500 | Cc1cc(N2CCN([C@H]3C=C(c4nc5c(c(=O)[nH]4)CC4(CC5)CC4)CC3)CC2)ncc1F [Compound 137, (R)-2′-(3-(4-(5-fluoro-4-methylpyridin-2-yl)piperazin-1-yl)cyclopent-1-en-1-yl)-7′,8′-dihydro-3′H-spiro[cyclopropane-1,6′-quinazolin]-4′(5′H)-one]
16 | 501 to 5000 | Cc1cc(F)cc(N2CCN([C@H]3C=C(c4nc5c(c(=O)[nH]4)CC4(CC5)CC4)CC3)CC2)c1 [Compound 126, (R)-2′-(3-(4-(3-fluoro-5-methylphenyl)piperazin-1-yl)cyclopent-1-en-1-yl)-7′,8′-dihydro-3′H-spiro[cyclopropane-1,6′-quinazolin]-4′(5′H)-one]
17 | 501 to 5000 | O=c1[nH]c(C2=C[C@H](N3CCN(c4ccc(-c5ccccc5)nc4)CC3)CC2)nc2c1CC1(CC2)CC1 [Compound 157, (R)-2′-(3-(4-(6-phenylpyridin-3-yl)piperazin-1-yl)cyclopent-1-en-1-yl)-7′,8′-dihydro-3′H-spiro[cyclopropane-1,6′-quinazolin]-4′(5′H)-one]
18 | 501 to 5000 | O=c1[nH]c([C@@H]2CC[C@H](N3CCN(c4ccc(Cl)cc4)CC3)C2)nc2c1CC1(CC2)CC1 [Compound 118, 2′-((1R,3S)-3-(4-(4-chlorophenyl)piperazin-1-yl)cyclopentyl)-7′,8′-dihydro-3′H-spiro[cyclopropane-1,6′-quinazolin]-4′(5′H)-one]
19 | 501 to 5000 | O=c1[nH]c([C@H]2CC[C@@H](N3CCN(c4ccc(Cl)cc4)CC3)C2)nc2c1CC1(CC2)CC1 [Compound 120, 2′-((1S,3R)-3-(4-(4-chlorophenyl)piperazin-1-yl)cyclopentyl)-7′,8′-dihydro-3′H-spiro[cyclopropane-1,6′-quinazolin]-4′(5′H)-one]
20 | 5000 to 500000 | O=c1[nH]c(C2=CC(N3C4CCC3CN(c3ccc(Cl)cc3)C4)CC2)nc2c1CC1(CC2)CC1 (stereo not drawn) [Compound 159, 2′-(3-(3-(4-chlorophenyl)-3,8-diazabicyclo[3.2.1]octan-8-yl)cyclopent-1-en-1-yl)-7′,8′-dihydro-3′H-spiro[cyclopropane-1,6′-quinazolin]-4′(5′H)-one]
21 | 501 to 5000 | Cc1cccc(N2CCN([C@H]3C=C(c4nc5c(c(=O)[nH]4)CC4(CC5)CC4)CC3)CC2)c1C [Compound 140, (R)-2′-(3-(4-(2,3-dimethylphenyl)piperazin-1-yl)cyclopent-1-en-1-yl)-7′,8′-dihydro-3′H-spiro[cyclopropane-1,6′-quinazolin]-4′(5′H)-one]
22 | 5000 to 500000 | O=c1[nH]c([C@@H]2CC[C@H](N3CCN(c4cccc(F)c4)CC3)C2)nc2c1CC1(CC2)CC1 [Compound 153, 2′-((1R,3S)-3-(4-(3-fluorophenyl)piperazin-1-yl)cyclopentyl)-7′,8′-dihydro-3′H-spiro[cyclopropane-1,6′-quinazolin]-4′(5′H)-one]
23 | 501 to 5000 | O=c1[nH]c([C@@H]2CC[C@@H](N3CCN(c4ccc(F)cc4)CC3)C2)nc2c1CC1(CC2)CC1 [Compound 152, 2′-((1R,3R)-3-(4-(4-fluorophenyl)piperazin-1-yl)cyclopentyl)-7′,8′-dihydro-3′H-spiro[cyclopropane-1,6′-quinazolin]-4′(5′H)-one]
24 | 501 to 5000 | O=c1[nH]c([C@H]2CC[C@@H](N3CCN(c4cccc(F)c4)CC3)C2)nc2c1CC1(CC2)CC1 [Compound 155, 2′-((1S,3R)-3-(4-(3-fluorophenyl)piperazin-1-yl)cyclopentyl)-7′,8′-dihydro-3′H-spiro[cyclopropane-1,6′-quinazolin]-4′(5′H)-one]
25 | 1 to 500 | O=c1[nH]c([C@H]2CC[C@@H](N3CCN(c4ccc(F)cc4)CC3)C2)nc2c1CC1(CC2)CC1 [Compound 151, 2′-((1S,3R)-3-(4-(4-fluorophenyl)piperazin-1-yl)cyclopentyl)-7′,8′-dihydro-3′H-spiro[cyclopropane-1,6′-quinazolin]-4′(5′H)-one]
26 | 1 to 500 | O=c1[nH]c(C2=C[C@H](N3CCN(c4cc(F)cc(F)c4)CC3)CC2)nc2c1CC1(CC2)CC1 [Compound 109, (R)-2′-(3-(4-(3,5-difluorophenyl)piperazin-1-yl)cyclopent-1-en-1-yl)-7′,8′-dihydro-3′H-spiro[cyclopropane-1,6′-quinazolin]-4′(5′H)-one]
27 | 1 to 500 | Cc1cc(N2CCN([C@H]3C=C(c4nc5c(c(=O)[nH]4)CC4(CC5)CC4)CC3)CC2)ccn1 [Compound 147, (R)-2′-(3-(4-(2-methylpyridin-4-yl)piperazin-1-yl)cyclopent-1-en-1-yl)-7′,8′-dihydro-3′H-spiro[cyclopropane-1,6′-quinazolin]-4′(5′H)-one]
